Data set [1] is described as follows: Biotransformation of [14C]Compound I in bile duct cannulated rats after a single oral dose. Conditions: single 25-mg/kg oral dose. The format is in vivo, rat. The text has this: A single 25-mg/kg oral dose of [^14C] Compound I, as a solution in cremophore
EL/ethanol/water (10:10:80, v/v/v), was separately administered to two male bile duct cannulated (BDC) rats. Within 24 hr after dosing, an average of 25.8% of the administered dose was excreted in bile, The corresponding value in urine was 3.9%. […] Thus, the oral absorption of [^14C] Compound I in rats was estimated to be at least 30%. Following the oral dose, the concentration of total radioactivity in plasma was measurable up to 24 hr and averaged 349 ng-equiv./mL at that time. The parent drug was a prominent radioactive component in plasma. At 24 hr after dosing, the concentration of Compound I in plasma was estimated to be 61 ng/mL. More than 20 hydrolytic and oxidative metabolites of [^14C] Compound I were detected in plasma.
Bile duct and jugular vein cannulated (BDC/JVC) male Sprague-Dawley rats (Hla®: [SD] CVF®, 6-10 weeks old and weighing 300±50 g at dosing), were purchased from Hilltop Laboratories (Scottdale, Pa.). Upon receipt, each rat was marked on the tail and given an ear tag with a unique identification number.
The dosing solution was prepared as follows: 7.96 mg of non-radiolabeled Compound I, 10.16 mg of [^13C] Compound I and 2.99 mg of [^14C] Compound I (77.7 μCi of radioactivity) were weighed into a vial. The compounds were then dissolved in 1.6 mL of a cremophore EL/ethanol solution (1:1, v/v) and diluted with 6.4 mL of sterile water. The total weight of the dosing solution was 7.53 g. The concentration of [^14C] Compound I in the dosing solution was […] (10.32 μCi/g) of solution. The nominal specific activity was 3.68 μCi/mg (8170 dpm/μg).
Two rats, housed individually in Nalgene metabolic cages, were each given a single 25-mg/kg nominal dose of [^14C] Compound I orally by gavage. The actual amount of dosing solution administered to each animal was determined by weighing the loaded dosing syringe before dose administration and the emptied syringe after dose administration. Bile was collected from each animal between −1-0 (pre-dose), 0-6, 6-12, and 12-24 hr after dosing. Urine was collected between −24-0 (predose), 0-12, and 12-24 hr after dosing. Both the bile and urine samples were collected in tubes set on dry ice. At 0.5, 6, and 12 hr after dosing, blood samples (−1.2 mL) were collected from the jugular vein cannula into a heparinized syringe. At 24 hr after dosing, animals were sacrificed by CO2 asphyxiation. Terminal blood was collected by cardiac puncture into a heparinized vacutainer. Predose blood sample was collectd from a separate control animal. Blood was centrifuged at 2,500 rpm and 4° C. for 10 min to separate the plasma. Bile, urine, and plasma samples were weighed and stored at −20° C. prior to analysis.
Concentrations of radioactivity in bile, urine, and plasma samples were determined by counting duplicate aliquots of each sample in 5 mL of Ready Value™ cocktail (Beckman Instrunents, Inc.) with a Beckman LS 3801, LS 5000TD, or LS6000TA Liquid Scintillation Counter for 10 min or until the 2-sigma error was less than or equal to 2%, whichever came first. Quench correction was performed using an external standard method. Most of the HPLC fractions used to prepare reconstructed HPLC chromatograms were counted for 5 minutes except for plasma samples, which were counted for 10 minutes.
A portion (−20% of each sample) of the 0-6, 6-12, and 12-24 hr bile samples from two rats were pooled by interval to prepare three pooled samples. A portion (−20% of each sample) of the 0-6, 6-12, and 12-24 hr bile samples from two rats were pooled together to prepare a 0-24 hr sample. Duplicate 10-μL aliquots of each pooled sample were taken for radioactivity counting.
A portion (−20% of each sample) of the 0-12 and 12-24 hr urine samples from two rats were pooled by interval to prepare two pooled samples. […]

For data set [2] the following is noted: prior art; cited from earlier work.
For data set [3], the system named is tumors. Conditions: Proc Am Assoc Cancer Res 1999 40 Abs 1905; cited from earlier work.
Data set [4] is described as follows: Rank order of metabolic stability in liver microsomes of the five species. The format is in vitro ADME. Conditions: 1 hr incubation. The procedure: (§1) Each mL of the incubation mixture, in 100 mM of potassium phosphate buffer (pH 7.4), contained: 20 nmol of test article, 1 mg of microsomal protens, 3 μmol of NADPH and 10 μmol of magnesium chloride. The final concentrations were: test article, 20 μM; microsomal proteins, 1 mg/mL; NADPH, 3 mM; magnesium chloride, 10 mM; acetonitrile, 1% (v/v). 7-EC (100 μM) was used as the positive control for enzyme activity in the microsomes of all species. Two negative controls, one without NADPH and the other using heat-treated microsomes (5 min in boiling water), were carried out to determine the stability of the test article. The total volume of incubation mixture was 5 mL each for the test article incubations and 1 mL each for the positive and negative controls.
Incubations were carried out aerobically at 37° C. with constant shaking. Incubation mixtures were prepared at 0-4° C. (on ice). […] At the end of incubation, duplicate aliquots (10 μL) of the incubation mixture of the negative controls and the test article incubations were taken for liquid scintillation counting of radioactivity. […]
[^14C]Compound I was separately incubated with mouse, rat, dog, monkey and human liver microsoomes fortified with NADPH for 1 hr at 37° C. The incubation mixtures were extracted with methanol and the extacts were analyzed by HPLC radiochromatograpby and LC/RAM/(+)ESI-MS and MS/MS.
In general terms: Liver microsomes are a subcellular fraction often used to study metabolism.

A short description of data set [5]: [14C]Compound I incubation with rat liver microsomes (RLM), metabolite profile. The data set is classed as in vitro ADME. Conditions: 1 hr incubation, 37° C., 20 μM, NADPH. How it is done:
as §1, with “The total volume of incubation mixture was 5 mL each for the test article incubations and 1 mL each for the positive and negative controls.” left out
(§2) Incubations were carried out aerobically at 37° C. with constant shaking. […] At the end of incubation, duplicate aliquots (10 μL) of the incubation mixture of the negative controls and the test article incubations were taken for liquid scintillation counting of radioactivity. […]
(§3) The radiochemical purity of [^14C]Compound I and the metabolite profiles of the compound in the methanol extract of liver microsomal incubations were determined by HPLC radiochromatograpby using the following system:
(§4) Fractions of the HPLC effluent were collected (0.25 min/fraction) into a 96-well deep luma plates and the collected fractions were dried using Savant Automatic SpeedVac system. Radioactivity was then determined with a Packard Top Count-NXT counter. […]

Data set [6] in a line: [14C]Compound I incubation with human liver microsomes (HLM), metabolite profile. The data set is classed as in vitro ADME. Conditions: 1 hr incubation, 37° C., 20 μM, NADPH. The procedure: as §1, with “The total volume of incubation mixture was 5 mL each for the test article incubations and 1 mL each for the positive and negative controls.” left out
as §2, §3, §4

Data set [7] can be described thus: [14C]Compound I incubation with mouse liver microsomes (MLM), metabolite profile. The data set is classed as in vitro ADME. Conditions: 1 hr incubation, 37° C., 20 μM, NADPH. The procedure:
as §1, with “The total volume of incubation mixture was 5 mL each for the test article incubations and 1 mL each for the positive and negative controls.” left out
as §2, §3, §4

Data set [8] can be described thus: [14C]Compound I incubation with dog liver microsomes (DLM), metabolite profile. The format is in vitro ADME. Conditions: 1 hr incubation, 37° C., 20 μM, NADPH. How it is done:
as §1, with “The total volume of incubation mixture was 5 mL each for the test article incubations and 1 mL each for the positive and negative controls.” left out
as §2, §3, §4

Data set [9] can be described thus: [14C]Compound I incubation with monkey liver microsomes (MKLM), metabolite profile. The data set is classed as in vitro ADME. Conditions: 1 hr incubation, 37° C., 20 μM, NADPH. The procedure: as §1, with “The total volume of incubation mixture was 5 mL each for the test article incubations and 1 mL each for the positive and negative controls.” left out
as §2, §3, §4

For data set [10] the following is noted: up to 160 mg/kg/day, Suffness et al.; cited from earlier work.
Data set [11] concerns sc M109. The data set is classed as in vivo. Conditions: oral doses as high as 160 mg/kg/inj, murine tumor models (sc M109). An excerpt:
[…]; see Eiseman et al., Second NCI Workshop on Taxol and Taxus (September 1992); Suffness et.al. in TAXOL Science and Applications (CRC Press 1995). […]. Another report by J. Terwogt et. al. from The Lancet, Jul. […] […].

For data set [12], the system named is human tumor xenografts. Description: Oral paclitaxel against human tumor xenografts in athymic mice or rats. Conditions: human tumor xenografts implanted in athymic mice or athymic rats. Background: Xenograft models place foreign cells or tissue in a host animal.
For data set [13] the following is noted: oral; quote from WO98/53811; cited from earlier work.
Setting [14] is: BDC rats, within 24 hr, average of two rats, total radioactivity.

Where “and” joins values, the source holds several entries; their conditions need not be identical. Equal entries are not always repeated. Bounds are passed on as bounds.

Take `O=C(O)CNC(=O)c1ccccc1` [Metabolite M3, hippuric acid]: in data set [1] (rats, 0-24 hr pooled urine), the “% of the dose in urine accounted for by metabolite(s)” value is given as about 2.3%; the “% of total radioactivity in urine accounted for by metabolite(s)” value was ~56% and ~60%.
As for `CC(=O)O[C@@]12CO[C@@H]1C[C@H](O)[C@@]1(C)C(=O)[C@H](O)C3=C(C)[C@@H](OC(=O)[C@H](O)[C@@H](NC(=O)OC(C)(C)C)c4ccccc4)C[C@@](O)([C@@H](OC(=O)c4ccccc4)[C@H]21)C3(C)C` [TAXOTERE®, docetaxel], the “oral activity in human or animal models” value in data set [2] was “no oral activity”.
On to `CC(=O)O[C@H]1C(=O)[C@@]2(C)[C@H]([C@H](OC(=O)c3ccccc3)[C@]34OC(=O)O[C@H]3[C@H](OC(=O)[C@H](O)[C@H](CC(C)C)NC(=O)OC(C)(C)C)C(C)=C1C4(C)C)[C@]1(OC(C)=O)CO[C@@H]1C[C@@H]2O` [IDN-5109], for which, in data set [3], the “activity against tumors in mice after oral administration” value is “oral activity”.
As to `COC(=O)O[C@@]12CO[C@@H]1C[C@H](O)[C@@]1(C)C(=O)[C@H](OC(C)=O)C3=C(C)[C@@H](OC(=O)[C@H](O)[C@@H](NC(=O)OC(C)(C)C)C(C)(C)C)C[C@@](O)([C@@H](OC(=O)c4ccccc4)C12)C3(C)C` (some centres unmarked) [Compound I, 3′-tert-butyl-3′-N-tert-butyloxycarbonyl-4-deacetyl-3′-dephenyl-3′-N-debenzoyl-4-O-methoxycarbonyl-paclitaxel], the “rank order of metabolic stability in the liver microsomes of the five species” value in data set [4] is reported as “rat>dog>mouse>human>monkey”. In addition, the “parent drug in the incubation mixture remained unchanged” value in data set [5] was 72.5%; in [7] it was 31.5%; in data set [8] it was 59.7% and 58.7%; in data set [9], 2.9%. Moreover, the “parent drug in the incubation mixture recovered unchanged” value in [6] came to 21.4%. The “total recovery of the administered dose in bile and urine” value in data set [1] (BDC rats, 24 hr, average) worked out at 29.6%. The “administered dose excreted in bile” value in data set [1] (setting [14]) stood at 25.8%. Besides, the “administered dose excreted in urine” value in [1] (setting [14]) is given as 3.9%. The concentration at 24 h in data set [1] (male, Sprague-Dawley, rat, rats, at 24 hr after dosing, pooled plasma, read-out: concentration of Compound I in plasma (estimated)) was 0.061 µg/mL. The “parent drug detected in bile, % of total radioactivity” value in data set [1] (rats, 0-24 h pooled bile) is recorded as under 1%. Moreover, in [1] (rats, at 24 hr, average), the “concentration of total radioactivity in plasma” value was 349 ng-equiv./mL. Further, the “oral absorption (estimated)” value in data set [1] (rats, from bile and urine recovery) is “at least 30%”. Moreover, the “parent drug detected in urine” value in [1] (rats, pooled urine) is at most 1%.
Turning to `CC(=O)O[C@H]1C(=O)[C@@]2(C)[C@H]([C@H](OC(=O)c3ccccc3)[C@]3(O)C[C@H](OC(=O)[C@H](O)[C@@H](NC(=O)c4ccccc4)c4ccccc4)C(C)=C1C3(C)C)[C@]1(OC(C)=O)CO[C@@H]1C[C@@H]2O` [paclitaxel], the “antitumor activity on oral administration” value in data set [10] is given as “no evidence of antitumor activity”. Moreover, the “efficacy after oral dosing” value in data set [11] was “without signs of any efficacy”. The “attempts to demonstrate activity for orally administered drug” value in data set [12] is “unsuccessful”. For the same compound, the “absorbed when administered orally” value in [13] was “less than 1%”. In data set [2], the “oral activity in human or animal models” value is recorded as “no oral activity”.

(Values after patent US20070105944A1, “Taxane metabolites” (priority 2002, published 2007).)
